Experimental data taken from patent publication US11541050B2, “Pyrimidine derivatives for the treatment of viral infections” (JANSSEN SCIENCES IRELAND UC, priority 2011, dated 2023).

Columns and labels:
[1] = test system: human TLR7 mutant sequence comprising a deletion in the second leucine-rich repeat; assay: TLR7 cellular NFκB-luc reporter assay, mutant TLR7 with deletion in the second leucine-rich repeat; assay type: cell-based; parameters: unit not given here; conditions: lowest effective concentration, TLR7 mutant with deletion in second leucine-rich repeat
Summary of the method: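 HEK293 cells transiently co-transfected with CMV-driven mutant TLR7 or TLR8 plasmid plus NFκB-luc reporter, cultured 48 h at 37 °C, then exposed to compound for 6 h at 37 °C, 5% CO2. Luciferase luminescence measured; dose-response curves from quadruplicates.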

[2] = test system: HCV replicon in Huh-7 luc/neo cells; assay: Suppression of HCV replicon replication by conditioned media from compound-treated PBMC; assay type: cell-based, HCV type 1 b; conditions: Hepatitis C virus, Huh-7; read-out: PBMC-HUH7_EC50
Summary of the method: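 Human PBMC (≥2 donors, RPMI + 10% human AB serum, 2×10^5 cells/well) incubated overnight with compounds; supernatant transferred onto Huh-7 luc/neo HCV 1b replicon cells. After 24 h, replication read as luciferase activity. Recombinant interferon α-2a served as standard.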

[3] = target: T1, human TLR8 (wild type sequence) (Homo sapiens, UniProt Q9NR97); assay: TLR8 cellular NFκB-luc reporter assay, wild type TLR8; assay type: cell-based; parameters: unit not given here; conditions: lowest effective concentration, wild type TLR8 (compounds 1-73)
T1 construct: expressed in transfected cells; host or cells: HEK293
T1 sequence (Q9NR97 27-1041): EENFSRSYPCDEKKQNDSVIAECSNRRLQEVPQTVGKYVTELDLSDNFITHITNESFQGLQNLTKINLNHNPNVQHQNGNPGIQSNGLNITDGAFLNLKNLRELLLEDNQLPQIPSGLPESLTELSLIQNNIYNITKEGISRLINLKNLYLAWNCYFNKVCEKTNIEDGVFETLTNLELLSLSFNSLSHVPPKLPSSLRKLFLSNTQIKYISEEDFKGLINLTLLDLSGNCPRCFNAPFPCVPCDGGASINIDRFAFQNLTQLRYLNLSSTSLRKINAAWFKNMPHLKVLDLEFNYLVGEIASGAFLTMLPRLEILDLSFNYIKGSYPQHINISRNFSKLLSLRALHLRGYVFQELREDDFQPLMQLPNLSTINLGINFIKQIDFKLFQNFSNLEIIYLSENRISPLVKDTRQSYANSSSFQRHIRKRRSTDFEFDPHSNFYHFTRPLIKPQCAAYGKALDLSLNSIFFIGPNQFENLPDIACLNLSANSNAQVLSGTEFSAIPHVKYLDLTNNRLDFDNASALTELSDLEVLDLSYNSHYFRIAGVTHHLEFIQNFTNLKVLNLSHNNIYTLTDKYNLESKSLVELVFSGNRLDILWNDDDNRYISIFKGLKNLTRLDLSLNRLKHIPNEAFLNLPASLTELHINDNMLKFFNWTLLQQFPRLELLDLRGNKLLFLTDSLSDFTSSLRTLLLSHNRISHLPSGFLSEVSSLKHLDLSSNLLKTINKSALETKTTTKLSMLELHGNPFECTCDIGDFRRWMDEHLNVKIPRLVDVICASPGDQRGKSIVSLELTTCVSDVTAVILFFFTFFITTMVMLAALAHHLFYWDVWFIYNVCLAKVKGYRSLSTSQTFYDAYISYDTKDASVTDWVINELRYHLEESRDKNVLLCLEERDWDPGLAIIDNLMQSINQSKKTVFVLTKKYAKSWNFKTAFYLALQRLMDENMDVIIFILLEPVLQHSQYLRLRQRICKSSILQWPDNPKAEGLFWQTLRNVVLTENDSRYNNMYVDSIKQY
Summary of the method: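 First, HEK293 cells were co-transfected with TLR7 or TLR8 (native or LRR2-deletion) and NFκB-luc and cultured 48 h. Next, cells were incubated with compound for 6 h at 37 °C. Finally, luciferase was read; LEC came from dose-response curves run in quadruplicate.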

Structure (SMILES)	TLR7-dIRR2_LEC [1]	EC50 [2] [nM]	TLR8-wt_LEC [3]
CCCCCCNc1nc(N)ncc1OCC [Compound 70]	4.96	> 23800	>24.59
CCCCCNc1nc(N)ncc1OC [Compound 56]	0.84	800	5.55
CCCCNc1nc(N)ncc1OCC [Compound 60]	1.38	1910	2.08
CCCCCNc1nc(N)ncc1OCC [Compound 63]	1.79	2690	6.35
CCCCNc1nc(N)ncc1Oc1ccccc1OC [Compound 64]	2.03	4290	18.43
CCCCCOc1cnc(N)nc1NCCCC [Compound 32]	1.35	1060	9.97
CCCCNc1nc(N)ncc1OCc1ccc(-c2ccccc2)cc1 [Compound 58]	0.99	2990	3.84
CCCCNc1nc(N)ncc1OC [Compound 4]	1.17	1140	2.56
CCCCNc1nc(N)ncc1OCC(C)C [Compound 31]	5.27	10400	17.53
CCCCCNc1nc(N)ncc1Oc1ccccc1OC [Compound 38]	2.46	11300	>50
